# Experimental data from article PMC4834642, “Orthogonal ring-closing alkyne and olefin metathesis for the synthesis of small GTPase-targeting bicyclic peptides” (Nature Communications, 2016).
# Bridge positions count the residues as written; N and C are the ends. Square brackets hold non-standard residues; d marks the D form. Peptide text beside a SMILES is read from it. * marks the point of attachment. FITC = O=C1OC2(c3ccc(O)cc3Oc3cc(O)ccc32)c2ccc(NC(=S)*)cc21; S5 = C=CCCC[C@](C)(N)C(=O)O; AEEA = NCCOCCOCC(=O)O
# Key:
# Rab8a6-176(GppNHp) = target: T1, Rab8a6-176(GppNHp) (Homo sapiens, UniProt P61006); experiment: Fluorescence polarization (FP) binding assay of fluorescein-labelled peptides; settings: for Rel. Kd (Kd [Peptide]/Kd [StRIP3]) / Kd: FP, fluorescein-PEG labelled peptide 66 nM, 4 h room temperature, 25 mM HEPES pH 7.5; for Rel. Kd (Kd [Peptide]/Kd [StRIP3]): Kd values are single point measurements (n = 1); for Kd: average of triplicate measurements, errors 1σ
# T1 construct: Expression and purification of Rab8a6-176 was performed analog to full-length Rab8a; made in house
# T1 sequence (P61006 6-176): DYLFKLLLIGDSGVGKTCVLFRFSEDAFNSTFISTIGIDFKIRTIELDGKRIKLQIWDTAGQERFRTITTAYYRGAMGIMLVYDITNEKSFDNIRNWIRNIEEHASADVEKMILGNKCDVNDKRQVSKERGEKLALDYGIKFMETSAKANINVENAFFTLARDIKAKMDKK
# Method: Rab8a6–176(GppNHp) was serially diluted in a buffer containing 25 mM HEPES (pH 7.5), 150 mM NaCl, 1 mM MgCl2, 1 mM TCEP, 0.01% Tween 20 and 1 μM GppNHp, treated with 66 nM fluorescein-labelled peptides and incubated for 4 h at room temperature. Fluorescence polarization values (λex=470 nm, λem=525 nm) were determined at room temperature. Initial studies for alkyne macrocyclized peptides were performed as single measurements. Final affinity measurements of a subset of peptides were performed in triplicates. After correction for changes in fluorescence intensity upon binding, the fluorescence anisotoropy data were converted into fraction bound of the FITC-labelled peptide and fitted to a one-site binding model derived from the law of mass action using Kd as the only fitting parameter (for details, see Supplementary Methods)[63]. Nonlinear regression was performed in Prism 5.0 (Graphpad)[64]. […]
# using a PD-10 desalting column Sephadex G-25 DNA Grade (GE Healthcare) with elution buffer consisting of 20 mM HEPES (pH 7.5), 50 mM NaCl, 1 mM TCEP. After removal of Mg2+ the protein was diluted to 80 - 100 µM before addition of ZnCl2 (500 µM) and (NH4)2SO4 (200 mM). After addition of alkaline phosphatase (5 U mg-1 Rab protein) the mixture was incubated for 16 h at 4°C. For nucleotide exchange, the mixture contained a 5-fold excess of GppNHp during alkaline phosphatase incubation. Afterwards, the mixture was desalted using a PD-10 desalting column Sephadex G-25 DNA Grade (GE Healthcare) with elution buffer consisting of 25 mM HEPES (pH 7.5) 150 mM NaCl, 1 mM TCEP, 1 mM MgCl2 and 1 µM GppNHp.
# Fluorescence polarization assay for the determination of dissociation […]
# Rab8a6-176 was serially diluted in a buffer containing 25 mM HEPES (pH 7.5), 150 mM NaCl, 1 mM MgCl2, 1 mM TCEP, 0.01% tween 20 and 1 µM GppNHp (assay buffer), treated with 66 nM fluorescein-labeled peptides and incubated for 4 h at room temperature. Binding assays were performed in 384-well, small volume, black flat-bottom, non-binding plates (Greiner). Fluorescence polarization values (λex = 470 nm, λem = 525 nm) were determined using a Safire II plate reader (Tecan) at room temperature. Initial studies for alkyne macrocyclized peptides were performed as single measurements. Final affinity measurements of a subset of peptides were performed in triplicates. After correction for changes in fluorescence intensity upon binding, the fluorescence anisotoropy data were converted into fraction bound (Supplementary equation 1) of the FITC- labeled peptide and fitted to a one-site binding model derived from the law of mass action using Kd as the only fitting parameter (Supplementary equation 2).4 In case of incomplete binding due to the limited solubility of Rab proteins, anisotropy top-values were extrapolated and constrained as indicated below. Non-linear regression was performed in Prism 5.0 […]
# (Supplementary equation 1)
# A: observed anisotropy; Afree: anisotropy of free fluorophore; Abound: anisotoropy of bound fluorophore; Q: change in fluorescence intensity between free and bound state […]
# (Supplementary equation 2)
# Kd: dissociation constant; LT: total concentration of labeled peptide; cRab: protein concentration Microscale Thermophoresis (MST)
# [1] = On-resin ring-closing alkyne metathesis (RCAM), alpha-methyl-alpha-alkynyl residues at i,i+4, Mo alkylidyne complex 5 (2 mg/mL, 2 x 0.5 mL), Ar bubbling to remove 2-butyne; bicyclic entries (24-29) additionally closed by RCM (Grubbs I); settings: the molecule shown is the open-chain precursor, toluene, 40.0 °C, 3.0 h
structure (smiles),measurement,setting,value
CC(C)C[C@H](NC(=O)[C@H](Cc1c[nH]cn1)NC(=O)[C@H](Cc1ccc(O)cc1)NC(=O)[C@]1(C)CCCCC#CCCC[C@](C)(NC(=O)[C@H](CCC(=O)O)NC(=O)[C@H](CC(=O)O)NC(=O)[C@H](CC(=O)O)NC(=O)COCCOCCNC(=S)Nc2ccc3c(c2)C(=O)OC32c3ccc(O)cc3Oc3cc(O)ccc32)C(=O)N[C@@H](CCC(=O)O)C(=O)N[C@@H](CCC(N)=O)C(=O)N[C@@H](Cc2ccccc2)C(=O)N1)C(=O)N[C@@]1(C)CCC/C=C\CCC[C@@](C)(C(=O)N[C@H](C(N)=O)C(C)C)NC(=O)[C@H](CC(N)=O)NC(=O)[C@H](Cc2ccccc2)NC(=O)[C@H](CO)NC1=O [compound 28],Rel. Kd (Kd [Peptide]/Kd [StRIP3]),Rab8a6-176(GppNHp),0.42
CC#CCCCC[C@](C)(NC(=O)[C@H](CCC(=O)OC(C)(C)C)NC(=O)[C@H](CC(=O)OC(C)(C)C)NC(=O)[C@H](CC(=O)OC(C)(C)C)NC(=O)OCC1c2ccccc2-c2ccccc21)C(=O)N[C@@H](CCC(=O)OC(C)(C)C)C(=O)N[C@@H](CCC(=O)NC(c1ccccc1)(c1ccccc1)c1ccccc1)C(=O)N[C@@H](Cc1ccccc1)C(=O)N[C@@](C)(CCCC#CC)C(=O)N[C@@H](Cc1ccc(OC(C)(C)C)cc1)C(=O)N[C@@H](Cc1cn(C(c2ccccc2)(c2ccccc2)c2ccccc2)cn1)C(=O)N[C@@H](CC(C)C)C(=O)N[C@@H](CC(C)C)C(=O)N[C@@H](COC(C)(C)C)C(=O)N[C@@H](Cc1ccccc1)C(=O)N[C@@H](CC(=O)NC(c1ccccc1)(c1ccccc1)c1ccccc1)C(=O)N[C@@H](C)C(=O)N[C@H](C(N)=O)C(C)C,"ring closure, overall yield",[1]; 22-membered ring,23%
CC(C)C[C@H](NC(=O)[C@H](CC(C)C)NC(=O)[C@H](Cc1c[nH]cn1)NC(=O)[C@H](Cc1ccc(O)cc1)NC(=O)[C@]1(C)CCCCC(Br)=C(Br)CCCC[C@](C)(NC(=O)[C@H](CCC(=O)O)NC(=O)[C@H](CC(=O)O)NC(=O)[C@H](CC(=O)O)NC(=O)COCCOCCNC(=S)Nc2ccc3c(c2)C(=O)OC32c3ccc(O)cc3Oc3cc(O)ccc32)C(=O)N[C@@H](CCC(=O)O)C(=O)N[C@@H](CCC(N)=O)C(=O)N[C@@H](Cc2ccccc2)C(=O)N1)C(=O)N[C@@H](CO)C(=O)N[C@@H](Cc1ccccc1)C(=O)N[C@@H](CC(N)=O)C(=O)N[C@@H](C)C(=O)N[C@H](C(N)=O)C(C)C [peptide 21],Increase in binding affinity compared with StRIP3,"Rab8a6-176(GppNHp); FP Kd, Rab8a6-176(GppNHp)",2 fold
same,Rel. Kd (Kd [Peptide]/Kd [StRIP3]),Rab8a6-176(GppNHp),0.40
same,Kd,Rab8a6-176(GppNHp),10.7 ± 0.5 µM
CC#CCCC[C@](C)(NC(=O)[C@H](Cc1ccccc1)NC(=O)[C@H](CCC(=O)NC(c1ccccc1)(c1ccccc1)c1ccccc1)NC(=O)[C@H](CCC(=O)OC(C)(C)C)NC(=O)[C@](C)(CCCC#CC)NC(=O)[C@H](CCC(=O)OC(C)(C)C)NC(=O)[C@H](CC(=O)OC(C)(C)C)NC(=O)[C@H](CC(=O)OC(C)(C)C)NC(=O)OCC1c2ccccc2-c2ccccc21)C(=O)N[C@@H](Cc1ccc(OC(C)(C)C)cc1)C(=O)N[C@@H](Cc1cn(C(c2ccccc2)(c2ccccc2)c2ccccc2)cn1)C(=O)N[C@@H](CC(C)C)C(=O)N[C@@H](CC(C)C)C(=O)N[C@@H](COC(C)(C)C)C(=O)N[C@@H](Cc1ccccc1)C(=O)N[C@@H](CC(=O)NC(c1ccccc1)(c1ccccc1)c1ccccc1)C(=O)N[C@@H](C)C(=O)N[C@H](C(N)=O)C(C)C,"ring closure, overall yield",[1]; 21-membered ring,0%
CC#CCCCC[C@](C)(NC(=O)[C@H](Cc1ccccc1)NC(=O)[C@H](CCC(=O)NC(c1ccccc1)(c1ccccc1)c1ccccc1)NC(=O)[C@H](CCC(=O)OC(C)(C)C)NC(=O)[C@](C)(CCCC#CC)NC(=O)[C@H](CCC(=O)OC(C)(C)C)NC(=O)[C@H](CC(=O)OC(C)(C)C)NC(=O)[C@H](CC(=O)OC(C)(C)C)NC(=O)OCC1c2ccccc2-c2ccccc21)C(=O)N[C@@H](Cc1ccc(OC(C)(C)C)cc1)C(=O)N[C@@H](Cc1cn(C(c2ccccc2)(c2ccccc2)c2ccccc2)cn1)C(=O)N[C@@H](CC(C)C)C(=O)N[C@@H](CC(C)C)C(=O)N[C@@H](COC(C)(C)C)C(=O)N[C@@H](Cc1ccccc1)C(=O)N[C@@H](CC(=O)NC(c1ccccc1)(c1ccccc1)c1ccccc1)C(=O)N[C@@H](C)C(=O)N[C@H](C(N)=O)C(C)C,"ring closure, overall yield",[1]; 22-membered ring,12%
CC#CCCCC[C@](C)(NC(=O)[C@H](Cc1ccccc1)NC(=O)[C@H](CCC(=O)NC(c1ccccc1)(c1ccccc1)c1ccccc1)NC(=O)[C@H](CCC(=O)OC(C)(C)C)NC(=O)[C@](C)(CCCCC#CC)NC(=O)[C@H](CCC(=O)OC(C)(C)C)NC(=O)[C@H](CC(=O)OC(C)(C)C)NC(=O)[C@H](CC(=O)OC(C)(C)C)NC(=O)OCC1c2ccccc2-c2ccccc21)C(=O)N[C@@H](Cc1ccc(OC(C)(C)C)cc1)C(=O)N[C@@H](Cc1cn(C(c2ccccc2)(c2ccccc2)c2ccccc2)cn1)C(=O)N[C@@H](CC(C)C)C(=O)N[C@@H](CC(C)C)C(=O)N[C@@H](COC(C)(C)C)C(=O)N[C@@H](Cc1ccccc1)C(=O)N[C@@H](CC(=O)NC(c1ccccc1)(c1ccccc1)c1ccccc1)C(=O)N[C@@H](C)C(=O)N[C@H](C(N)=O)C(C)C,"ring closure, overall yield",[1]; 23-membered ring,16%
CC(C)C[C@H](NC(=O)[C@H](CC(C)C)NC(=O)[C@H](Cc1c[nH]cn1)NC(=O)[C@H](Cc1ccc(O)cc1)NC(=O)[C@]1(C)CCC/C=C\CCC[C@](C)(NC(=O)[C@H](CCC(=O)O)NC(=O)[C@H](CC(=O)O)NC(=O)[C@H](CC(=O)O)NC(=O)COCCOCCNC(=S)Nc2ccc3c(c2)C(=O)OC32c3ccc(O)cc3Oc3cc(O)ccc32)C(=O)N[C@@H](CCC(=O)O)C(=O)N[C@@H](CCC(N)=O)C(=O)N[C@@H](Cc2ccccc2)C(=O)N1)C(=O)N[C@@H](CO)C(=O)N[C@@H](Cc1ccccc1)C(=O)N[C@@H](CC(N)=O)C(=O)N[C@@H](C)C(=O)N[C@H](C(N)=O)C(C)C [StRIP3] ({FITC-AEEA}-DDE[S5]EQF[S5]YHLLSFNAV-NH2; staple (Z) 4-8; C-terminus assumed),Rel. Kd (Kd [Peptide]/Kd [StRIP3]),Rab8a6-176(GppNHp),1.00
same,Kd,Rab8a6-176(GppNHp),20.7 ± 0.7 µM
